Measurements reported in patent US10947252B2, “Inhibitors of KEAP1-Nrf2 protein-protein interaction” (Janssen Pharmaceutica NV, priority 2018, dated 2021).

Columns and labels:
[1] = molecular target: Kelch domain of human KEAP1 (321-624 aa) (Homo sapiens (Human), UniProt Q14145); assay: KEAP1 KELCH ThermoFluor binding assay; details: KEAP Kelch […], 1,8-ANS, pH 7.0, average of results obtained, read-out: Tf Kd;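 also: Ligand-induced melting temperature shift of E. coli-expressed KEAP1 Kelch protein, Kd estimated from concentration-response curves of ΔTm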
Sequence of Kelch domain of human KEAP1 (321-624 aa) (Q14145 321-624): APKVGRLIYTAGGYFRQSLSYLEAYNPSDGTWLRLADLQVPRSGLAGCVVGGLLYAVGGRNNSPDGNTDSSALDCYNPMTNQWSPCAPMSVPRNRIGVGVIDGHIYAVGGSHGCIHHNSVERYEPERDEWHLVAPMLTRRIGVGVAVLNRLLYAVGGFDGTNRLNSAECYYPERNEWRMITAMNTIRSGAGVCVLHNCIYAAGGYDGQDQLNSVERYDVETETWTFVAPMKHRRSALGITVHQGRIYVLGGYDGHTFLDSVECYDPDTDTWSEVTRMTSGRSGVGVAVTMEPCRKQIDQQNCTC

[2] = system: Glo-Response ARE-luc2P HEK293 cell line; assay: ARE luciferase reporter cell-based assay; details: Homo sapiens, HEK293, 24 h, average of results obtained;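 also: luciferase signal tracks Nrf2 activation of the ARE once compounds disrupt KEAP1-Nrf2 binding, read with One-Glo reagent, DMSO serving as low control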
Experimental: The ARE assay utilizes a luciferase reporter cell line where the signal is proportional to NrF2 activation of the ARE. The cell line is commercially available from Promega and was prepared by stably transfecting HEK293 cells with a vector (pGL4.11) which contains the ARE response element upstream of a minimal promoter. The promoter drives expression of luc2 firefly luciferase gene. Upon disruption of KEAP1-Nrf2 binding by compound, Nrf2 translocates into the nucleus where it binds to the ARE and activates transcription of luciferase.
The materials used in this ARE assay are as follows: Glo-Response ARE-luc2P HEK293 cell line and One-Glo Luciferase Assay System were purchased from Promega (Madison, Wis.). Dulbecco's Modified Eagle medium ((DMEM), low glucose, GlutaMAX, pyruvate), fetal bovine serum (certified, heat inactivated), hygromycin B, Dulbecco's phosphate-buffered saline were purchased from Life Technologies (Grand Island, N.Y.). Penicillin, streptomycin solution (100×) and 0.05% trypsin-EDTA were purchased from Corning (Manassas, Va.). DMSO was purchased from EMD Millipore.
The ARE assay protocol is as follows: cells were maintained in growth medium (DMEM+10% FBS, 200 μg/mL hygromycin B, p-s) between 20-90% confluency by splitting twice per week. One day before the assay, cells were trypsinized, counted to determine viable cell count, and re-suspended in assay medium (DMEM+10% FBS, p-s) at 250,000 cells/mL. […] 100% DMSO was used as the low control. A 11-point dose series of the control compound was included on every plate. Compounds were spotted to an intermediate plate (Greiner #781280 V-bottom 384 well plate) using the Echo acoustic dispenser (Labscyte San Jose, Calif.). Spot size was 240 nL.
On the day of the assay, 60 mL per well of assay medium was added to the pre-spotted plate to make 2× compound stocks using the Combi (Thermo Waltham, Mass.). Compound and medium were mixed on the Janus and 20 mL of 2×compound stock was added to the cell plate which already contained 20 mL of assay medium from cell plating. […] The plates were returned to the tissue culture incubator for 24 hours.
The next day, luciferase activity was measured according to the manufacturer's protocol for One-Glo luciferase reagent. The plates were removed from the incubator and allowed to equilibrate to room temperature for 30 min. Forty microliters of One-Glo reagent (equilibrated to room temperature) was added per well using the Combi. The plates were mixed on an orbital shaker for 3 min. Luminescence was read on the BMG Pherastar multiplate reader (Cary, N.C.) using the luminescence protocol (1 sec interval).
The dose-response data were analyzed in Genedata Screener using 4PL nonlinear regression model. Raw luminescence counts as well as normalized values were used for data analysis.

Kd [1] [nM] | SMILES | EC50 [2] [nM]
< 1 | Cc1ccc([C@@H](c2ccn3c(C(F)(F)F)nnc3c2C)C(C)(C)C(=O)O)cc1CN1CC2(CC2)Oc2nc(OCCN3CCC3)c(C)cc2S1(=O)=O (single isomer, unassigned) [Example 604, (*S)-3-(3-((7′-(2-(Azetidin-1-yl)ethoxy)-8′-methyl-1′,1′-dioxidospiro[cyclopropane-1,4′-pyrido[2,3-b][1,4,5]oxathiazepin]-2′(3′H)-yl)methyl)-4-methylphenyl)-2,2-dimethyl-3-(8-methyl-3-(trifluoromethyl)-[1,2,4]triazolo[4,3-a]pyridine-7-yl)propanoic Acid] | 8.82
< 1 | Cc1ccc([C@@H](c2ccn3c(C(F)(F)F)nnc3c2C)C(C)(C)C(=O)O)cc1CN1CC2(CCOCC2)Oc2nc(CCC(=O)NC3CCC3)ccc2S1(=O)=O (single isomer, unassigned) [Example 605, (*S)-3-(3-((7′-(3-Cyclobutylamino-3-oxopropyl)-1′,1′-dioxido-2,3,5,6-tetrahydrospiro[pyran-4,4′-pyrido[2,3-b][1,4,5]oxathiazepin]-2′(3′H)-yl)methyl)-4-methylphenyl)-2,2-dimethyl-3-(8-methyl-3-(trifluoromethyl)-[1,2,4]triazolo[4,3-a]pyridine-7-yl)propanoic Acid] | 109
1730 | Cc1ccc([C@@H](c2ccn3c(C(F)(F)F)nnc3c2C)C(C)(C)C(=O)O)cc1CN1CC2(CCOCC2)Oc2nc(OCCO)ccc2S1(=O)=O (single isomer, unassigned) [Example 606, (*S)-3-(3-((7′-(2-Hydroxyethoxy)-1′,1′-dioxido-2,3,5,6-tetrahydrospiro[pyran-4,4′-pyrido[2,3-b][1,4,5]oxathiazepin]-2′(3′H)-yl)methyl)-4-methylphenyl)-2,2-dimethyl-3-(8-methyl-3-(trifluoromethyl)-[1,2,4]triazolo[4,3-a]pyridine-7-yl)propanoic Acid] | > 20000
1360 | Cc1ccc([C@@H](c2ccn3c(C(F)(F)F)nnc3c2C)C(C)(C)C(=O)O)cc1CN1CC2(CCOCC2)Oc2nc(OCCCOCCCO)ccc2S1(=O)=O (single isomer, unassigned) [Example 607, (*S)-3-(3-((7′-(3-(3-Hydroxypropoxy)propoxy)-1′,1′-dioxido-2,3,5,6-tetrahydrospiro[pyran-4,4′-pyrido[2,3-b][1,4,5]oxathiazepin]-2′(3′H)-yl)methyl)-4-methylphenyl)-2,2-dimethyl-3-(8-methyl-3-(trifluoromethyl)-[1,2,4]triazolo[4,3-a]pyridin-7-yl)propanoic Acid] | 7620
< 1 | Cc1ccc([C@H](c2ccn3c(C(F)(F)F)nnc3c2C)C(C)(C)C(=O)O)cc1CN1CC2(CCOCC2)Oc2nc(OCCCOCCCO)ccc2S1(=O)=O (single isomer, unassigned) [Example 608, (*R)-3-(3-((7′-(3-(3-Hydroxypropoxy)propoxy)-1′,1′-dioxido-2,3,5,6-tetrahydrospiro[pyran-4,4′-pyrido[2,3-b][1,4,5]oxathiazepin]-2′(3′H)-yl)methyl)-4-methylphenyl)-2,2-dimethyl-3-(8-methyl-3-(trifluoromethyl)-[1,2,4]triazolo[4,3-a]pyridin-7-yl)propanoic Acid] | 9.12
634 | Cc1ccc([C@H](c2ccn3c(C(F)(F)F)nnc3c2C)C(C)(C)C(=O)O)cc1CN1CC2(CCOCC2)Oc2nc(OCCN3CCCC3)c(C)cc2S1(=O)=O (single isomer, unassigned) [Example 609, (*R)-2,2-Dimethyl-3-(4-methyl-3-((8′-methyl-1′,1′-dioxido-7′-(2-(pyrrolidin-1-yl)ethoxy)-2,3,5,6-tetrahydrospiro[pyran-4,4′-pyrido[2,3-b][1,4,5]oxathiazepin]-2′(3′H)-yl)methyl)phenyl)-3-(8-methyl-3-(trifluoromethyl)-[1,2,4]triazolo[4,3-a]pyridin-7-yl)propanoic Acid] | > 20000
< 1 | Cc1ccc([C@@H](c2ccn3c(C(F)F)nnc3c2C)C(C)(C)C(=O)O)nc1CN1CC2(COC2)Oc2ncccc2S1(=O)=O (single isomer, unassigned) [Example 610, (*S)-3-(3-(Difluoromethyl)-8-methyl-[1,2,4]triazolo[4,3-a]pyridin-7-yl)-3-(6-((1′,1′-dioxidospiro[oxetane-3,4′-pyrido[2,3-b][1,4,5]oxathiazepin]-2′(3′H)-yl)methyl)-5-methylpyridin-2-yl)-2,2-dimethylpropanoic Acid] | 4.42
12800 | Cc1ccc([C@H](c2ccn3c(C(F)F)nnc3c2C)C(C)(C)C(=O)O)nc1CN1CC2(COC2)Oc2ncccc2S1(=O)=O (single isomer, unassigned) [Example 611, (*R)-3-(3-(Difluoromethyl)-8-methyl-[1,2,4]triazolo[4,3-a]pyridin-7-yl)-3-(6-((1′,1′-dioxidospiro[oxetane-3,4′-pyrido[2,3-b][1,4,5]oxathiazepin]-2′(3′H)-yl)methyl)-5-methylpyridin-2-yl)-2,2-dimethylpropanoic Acid] | 574
61500 | Cc1ncc([C@H](c2ccc3c(nnn3C3CC3)c2C)C(C)(C)C(=O)O)cc1CN1CC2(COC2)Oc2ncccc2S1(=O)=O (single isomer, unassigned) [Example 612, (*S)-3-(1-Cyclopropyl-4-methyl-1H-benzo[d][1,2,3]triazol-5-yl)-3-(5-((1′,1′-dioxidospiro[oxetane-3,4′-pyrido[2,3-b][1,4,5]oxathiazepin]-2′(3′H)-yl)methyl)-6-methylpyridin-3-yl)-2,2-dimethylpropanoic Acid] | 19900
< 1 | Cc1ncc([C@@H](c2ccc3c(nnn3C3CC3)c2C)C(C)(C)C(=O)O)cc1CN1CC2(COC2)Oc2ncccc2S1(=O)=O (single isomer, unassigned) [Example 613, (*R)-3-(1-Cyclopropyl-4-methyl-1H-benzo[d][1,2,3]triazol-5-yl)-3-(5-((1′,1′-dioxidospiro[oxetane-3,4′-pyrido[2,3-b][1,4,5]oxathiazepin]-2′(3′H)-yl)methyl)-6-methylpyridin-3-yl)-2,2-dimethylpropanoic Acid] | 33.2
< 1 | Cc1cnc2c(c1)S(=O)(=O)N(Cc1cc([C@@H](c3ccn4c(C(F)(F)F)nnc4c3C)C(C)(C)C(=O)O)ccc1C)CC1(COC1)O2 (single isomer, unassigned) [Example 614, (*S)-2,2-dimethyl-3-(4-methyl-3-((8′-methyl-1′,1′-dioxidospiro[oxetane-3,4′-pyrido[2,3-b][1,4,5]oxathiazepin]-2′(3′H)-yl)methyl)phenyl)-3-(8-methyl-3-(trifluoromethyl)-[1,2,4]triazolo[4,3-a]pyridine-7-yl)propanoic Acid] | 0.71
< 1 | Cc1ccc([C@@H](c2ccn3c(C(F)(F)F)nnc3c2C)C(C)(C)C(=O)O)cc1CN1CC2(COC2)Oc2ncccc2S1(=O)=O (single isomer, unassigned) [Example 615, (*S)-3-(3-((1′,1′-dioxidospiro[oxetane-3,4′-pyrido[2,3-b][1,4,5]oxathiazepin]-2′(3′H)-yl)methyl)-4-methylphenyl)-2,2-dimethyl-3-(8-methyl-3-(trifluoromethyl)-[1,2,4]triazolo[4,3-a]pyridine-7-yl)propanoic Acid] | 1.09
< 1 | Cc1ccc([C@@H](c2ccn3c(C(F)F)nnc3c2C)C(C)(C)C(=O)O)cc1CN1CC2(COC2)Oc2ncccc2S1(=O)=O (single isomer, unassigned) [Example 616, (*S)-3-(3-(difluoromethyl)-8-methyl-[1,2,4]triazolo[4,3-a]pyridine-7-yl)-3-(3-((1′,1′-dioxidospiro[oxetane-3,4′-pyrido[2,3-b][1,4,5]oxathiazepin]-2′(3′H)-yl)methyl)-4-methylphenyl)-2,2-dimethylpropanoic Acid] | 2.14
< 1 | Cc1cnc2c(c1)S(=O)(=O)N(Cc1cc([C@@H](c3ccn4c(C(F)F)nnc4c3C)C(C)(C)C(=O)O)ccc1C)CC1(COC1)O2 (single isomer, unassigned) [Example 617, (*S)-3-(3-(Difluoromethyl)-8-methyl-[1,2,4]triazolo[4,3-a]pyridin-7-yl)-2,2-dimethyl-3-(4-methyl-3-((8′-methyl-1′,1′-dioxidospiro[oxetane-3,4′-pyrido[2,3-b][1,4,5]oxathiazepin]-2′(3′H)-yl)methyl)phenyl)propanoic Acid] | 1.15
< 1 | Cc1cnc2c(c1)S(=O)(=O)N(Cc1cc([C@H](c3ccn4c(C5CC5)nnc4c3C)C(C)(C)C(=O)O)ccc1C)CC1(COC1)O2 (single isomer, unassigned) [Example 619, (*R)-3-(3-Cyclopropyl-8-methyl-[1,2,4]triazolo[4,3-a]pyridin-7-yl)-2,2-dimethyl-3-(4-methyl-3-((8′-methyl-1′,1′-dioxidospiro[oxetane-3,4′-pyrido[2,3-b][1,4,5]oxathiazepin]-2′(3′H)-yl)methyl)phenyl)propanoic Acid] | 4.48
< 1 | Cc1ccc([C@H](c2ccn3c(C4CC4)nnc3c2C)C(C)(C)C(=O)O)cc1CN1CC2(COC2)Oc2ncccc2S1(=O)=O (single isomer, unassigned) [Example 620, (*R)-3-(3-Cyclopropyl-8-methyl-[1,2,4]triazolo[4,3-a]pyridin-7-yl)-3-(3-((1′,1′-dioxidospiro[oxetane-3,4′-pyrido[2,3-b][1,4,5]oxathiazepin]-2′(3′H)-yl)methyl)-4-methylphenyl)-2,2-dimethylpropanoic Acid] | 7.87
< 1 | Cc1ccc([C@@H](c2ccn3c(C4CC4)nnc3c2C)C(C)(C)C(=O)O)cc1CN1CC2(COC2)Oc2ncccc2S1(=O)=O (single isomer, unassigned) [Example 621, (*S)-3-(3-Cyclopropyl-8-methyl-[1,2,4]triazolo[4,3-a]pyridin-7-yl)-3-(3-((1′,1′-dioxidospiro[oxetane-3,4′-pyrido[2,3-b][1,4,5]oxathiazepin]-2′(3′H)-yl)methyl)-4-methylphenyl)-2,2-dimethylpropanoic Acid] | 5640
